From paper PMC9046208, “Foldamers reveal and validate therapeutic targets associated with toxic α-synuclein self-assembly” (Nature Communications, 2022)

Key:
[1] = test system: HEK cells expressing αS-A53T-YFP; assay: Inclusion count by confocal imaging, HEK cells αS-A53T-YFP; type: cell-based; conditions: αS fibers 7 μM aggregated with equimolar SK-129, 24 h
Experimental: The Lipofectamine solution (Lipofectamine+P3000 reagent, Thermo Fisher Scientific, Waltham, MA) was diluted to a ratio of 1:20 (v,v) in the OptiMEM (Fisher Scientific, Pittsburgh, PA) media. Simultaneously, the αS fiber solution (Stock solution conc. = 100 μM) was diluted in OptiMEM media to the desired conc. used for each assay. The αS fiber solution was sonicated for 10 min at r.t., followed by the addition of the Lipofectomine solution (in the OptiMEM media) at 1:1 ratio. Subsequently, this solution was incubated for another 10 min and then added to the HEK cells media with a dilution factor of 10 (10 μL of the combined αS fiber solution+Lipofectomine solution, in 90 μL HEK cells media). […]
We used confocal microscopy imaging to manually count the endogenous inclusions (of αS-A53T-YFP and αS-YFP). […] The counting of inclusions was carried out for six different experiments and for each experiment, 100 cells were counted from at least four different locations from the eight-well plate. The cells were counted manually by counting the number of Hoechst 33342 dye-stained nuclei in the cells. Also, the inclusions in the cells were counted manually at different locations in the eight-well plate.

NL5901 = assay: Motility (activity counts, WMicroTracker ARENA) of C elegans NL5901; type: in vivo; conditions: NL5901, 15 µM SK-129 at the larval stage
Experimental: The assay was carried out based on a previous protocol[57] with slight modifications. On day one, N2 and NL5901 strains were synchronized through the bleaching process involving egglay and the incubation of the eggs at an ambient temperature (~23 °C) on a solution of 3 mL NGM media in 60 mm culture plates (CytoOne, USA Scientific, Ocala, FL). The plates were seeded with 300 µL OP50 at an O.D. of 0.5 for 30 h. Simultaneously, a solution of 15 µM SK-129 (Stock solution concentration = 10 mM in DMSO) was made in M9 buffer and added to two sterilized 35 mm NGM solid media plates (Fisher Scientific, Pittsburgh, PA). The plates were already containing 2 mL of NGM solid media and 75 µM Fluorodeoxyuridine (FUDR) to prevent offspring in the worms. On day two, M9 buffer was used to transfer the worms from 60 mm NGM plates into 35 mm FUDR and SK-129 containing solid media plates (Fisher Scientific, Pittsburgh, PA) and incubated up to day three on these plates. On day four, liquid media was prepared according to the previous protocol[69] with some modifications. […] On day five, motility assay was conducted for worms under different conditions in duplicate using a WMicroTracker Arena plate reader (Phylumtech, Argentina) at ~23 °C for 1 h per day over a period of 12 days. […]

Compound: COC(=O)c1cc(OCC(=O)O)c2cccc(NC(=O)c3cc(OC(C)C)c4cccc(NC(=O)c5cc(OCC(=O)O)c6cccc(NC(=O)c7cc(OC(C)C)c8cccc([N+](=O)[O-])c8n7)c6n5)c4n3)c2n1 [SK-129]
- inclusions (αS-A53T-YFP or αS-YFP) [1]: A very small number of inclusions
- overall activity (motility) (NL5901): significant improvement in the overall activity
